Values quoted from earlier work, collected in patent US4968506A, “Pharmaceutical dosage with core of N-acetyl cystein” (Lejus Medical Aktienbolag, priority 1988, dated 1990).

Tested on: mucous membrane in the stomach
Settings: N-acetyl cysteine

For `CC(=O)N[C@@H](CS)C(=O)O` [N-Acetyl cysteine, N-acetyl cysteine], the reported side effects is listed as “irritating effect on the mucous membrane in the stomach”.
